Where “and” joins values, the source holds several entries; their conditions need not be identical. Identical values can stand only once.
System: 648629-189-R-J1-PDC complex spheroids viability
Test: Anticancer human tumor 648629-189-R-J1-PDC patient-derived bladder carcinoma cell line growth inhibition [CLK]
Details: for viability, T/C: stronger effect = lower value
Procedure, shortened: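 Patient-derived tumor cells grown as complex spheroids with HUVEC endothelial cells and mesenchymal stem cells, treated with drug combinations. Concentrations descend in half-log steps from near clinical Cmax, or from 10 microM if Cmax unknown.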

[1] = curve of first compound, second compound 0.0316 µM
[2] = curve of first compound, second compound 0.1 µM
[3] = curve of first compound, second compound 0.316 µM
[4] = curve of first compound, second compound 1 µM
[5] = curve of first compound, second compound 3.16 µM
[6] = curve of first compound, second compound 10 µM
[7] = second compound 0.0316 µM, first compound 0.0316 µM
[8] = second compound 0.0316 µM, first compound 0.1 µM
[9] = second compound 0.0316 µM, first compound 0.316 µM
[10] = second compound 0.0316 µM, first compound 1 µM
[11] = second compound 0.0316 µM, first compound 3.16 µM
[12] = second compound 0.0316 µM, first compound 10 µM
[13] = second compound 0.1 µM, first compound 0.0316 µM
[14] = second compound 0.1 µM, first compound 0.1 µM
[15] = second compound 0.1 µM, first compound 0.316 µM
[16] = second compound 0.1 µM, first compound 1 µM
[17] = second compound 0.1 µM, first compound 3.16 µM
[18] = second compound 0.1 µM, first compound 10 µM
[19] = second compound 0.316 µM, first compound 0.0316 µM
[20] = second compound 0.316 µM, first compound 0.1 µM
[21] = second compound 0.316 µM, first compound 0.316 µM
[22] = second compound 0.316 µM, first compound 1 µM
[23] = second compound 0.316 µM, first compound 3.16 µM
[24] = second compound 0.316 µM, first compound 10 µM
[25] = second compound 1 µM, first compound 0.0316 µM
[26] = second compound 1 µM, first compound 0.1 µM
[27] = second compound 1 µM, first compound 0.316 µM
[28] = second compound 1 µM, first compound 1 µM
[29] = second compound 1 µM, first compound 3.16 µM
[30] = second compound 1 µM, first compound 10 µM
[31] = second compound 3.16 µM, first compound 0.0316 µM
[32] = second compound 3.16 µM, first compound 0.1 µM
[33] = second compound 3.16 µM, first compound 0.316 µM
[34] = second compound 3.16 µM, first compound 1 µM
[35] = second compound 3.16 µM, first compound 3.16 µM
[36] = second compound 3.16 µM, first compound 10 µM
[37] = second compound 10 µM, first compound 0.0316 µM
[38] = second compound 10 µM, first compound 0.1 µM
[39] = second compound 10 µM, first compound 0.316 µM
[40] = second compound 10 µM, first compound 1 µM
[41] = second compound 10 µM, first compound 3.16 µM
[42] = second compound 10 µM, first compound 10 µM
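Throughout, for viability, T/C: drug exposure lasted seven days before viability readout; 100% = DMSO vehicle control wells.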

C#Cc1c(F)ccc2cc(O)cc(-c3ncc4c(N5CC6CCC(C5)N6)nc(OCC56CCCN5CC(F)C6)nc4c3F)c12 (stereo not given) + CN1CCN(c2cc(C(=O)Nc3cc4cc(-c5cnn(C)c5)ccc4cn3)ccn2)CC1
IC50 [1]: > 10 µM | IC50 [2]: > 10 µM | IC50 [3]: 3.62 µM | IC50 [4]: < 0.0316 µM | IC50 [5]: < 0.0316 µM | IC50 [6]: < 0.0316 µM | viability, T/C [7]: 122% | viability, T/C [8]: 113% | viability, T/C [9]: 103% | viability, T/C [10]: 122% | viability, T/C [11]: 118% | viability, T/C [12]: 105% | viability, T/C [13]: 102% | viability, T/C [14]: 104% | viability, T/C [15]: 99.1% | viability, T/C [16]: 117% | viability, T/C [17]: 99.5% | viability, T/C [18]: 98% | viability, T/C [19]: 50.1% | viability, T/C [20]: 49.4% | viability, T/C [21]: 50.3% | viability, T/C [22]: 54.3% | viability, T/C [23]: 53% | viability, T/C [24]: 39.9% | viability, T/C [25]: 0.6% | viability, T/C [26]: 0.88% | viability, T/C [27]: 0.41% | viability, T/C [28]: 0.41% | viability, T/C [29]: 0.51% | viability, T/C [30]: 0.64% | viability, T/C [31]: 0.13% | viability, T/C [32]: 0.2% | viability, T/C [33]: 0.15% | viability, T/C [34]: 0.14% | viability, T/C [35]: 0.15% | viability, T/C [36]: 0.15% | viability, T/C [37]: 0.36% | viability, T/C [38]: 0.22% | viability, T/C [39]: 0.15% | viability, T/C [40]: 0.19% | viability, T/C [41]: 0.2% | viability, T/C [42]: 0.16%

C=CC(=O)N1CCN(c2nc(=O)n(-c3c(C)ccnc3C(C)C)c3nc(-c4c(O)cccc4F)c(F)cc23)C(C)C1 (stereo not given) + CNC(=O)c1ccc(Nc2nc(OC3CCCC3)c3c(-c4ccc5nc(C)oc5c4)c[nH]c3n2)c(OC)c1
IC50 [1]: > 10 µM | IC50 [2]: > 10 µM | IC50 [3]: < 0.0316 µM | IC50 [4]: < 0.0316 µM | IC50 [5]: < 0.0316 µM | IC50 [6]: < 0.0316 µM | viability, T/C [7]: 120% | viability, T/C [8]: 110% | viability, T/C [9]: 115% | viability, T/C [10]: 108% | viability, T/C [11]: 115% | viability, T/C [12]: 110% | viability, T/C [13]: 91.9% | viability, T/C [14]: 94.6% | viability, T/C [15]: 90.1% | viability, T/C [16]: 87.9% | viability, T/C [17]: 93.5% | viability, T/C [18]: 82.5% | viability, T/C [19]: 27% | viability, T/C [20]: 24.8% | viability, T/C [21]: 29.8% | viability, T/C [22]: 39.2% | viability, T/C [23]: 42.6% | viability, T/C [24]: 66.2% | viability, T/C [25]: 23.5% | viability, T/C [26]: 26.6% | viability, T/C [27]: 23.5% | viability, T/C [28]: 24.2% | viability, T/C [29]: 26.9% | viability, T/C [30]: 46.2% | viability, T/C [31]: 17.9% | viability, T/C [32]: 22.7% | viability, T/C [33]: 20.4% | viability, T/C [34]: 22.6% | viability, T/C [35]: 27.7% | viability, T/C [36]: 31.8% | viability, T/C [37]: 19.7% | viability, T/C [38]: 20.5% | viability, T/C [39]: 20.3% | viability, T/C [40]: 27.3% | viability, T/C [41]: 33.2% | viability, T/C [42]: 28.5%

COC1C=CCC(C)C(C)S(=O)(=O)NC(=O)c2ccc3c(c2)N(CC2CCC21)CC1(CCCc2cc(Cl)ccc21)CO3 (stereo not given)
viability, T/C (compound 0.0316 µM): 102% and 92.4% | viability, T/C (compound 0.1 µM): 91% and 85% | viability, T/C (compound 0.316 µM): 77% and 89.5% | viability, T/C (compound 1 µM): 79% and 77.1% | viability, T/C (compound 3.16 µM): 25.9% and 15.1% | viability, T/C (compound 10 µM): 2.88% and 3.41% | IC50 (curve of compound): 1.84 µM and 1.65 µM

COc1c(OCCCN2CCOCC2)ccc2c3n(c(=NC(=O)c4cnc(N)nc4)nc12)CCN3 + CN1CCN(c2cc(C(=O)Nc3cc4cc(-c5cnn(C)c5)ccc4cn3)ccn2)CC1
IC50 [1]: 0.0913 µM | IC50 [2]: 0.0733 µM | IC50 [3]: < 0.00316 µM | IC50 [4]: < 0.00316 µM | IC50 [5]: < 0.00316 µM | IC50 [6]: < 0.00316 µM | viability, T/C (second compound 0.0316 µM, first compound 0.00316 µM): 114% | viability, T/C (second compound 0.0316 µM, first compound 0.01 µM): 102% | viability, T/C [7]: 88.8% | viability, T/C [8]: 46.6% | viability, T/C [9]: 18.3% | viability, T/C [10]: 12.1% | viability, T/C (second compound 0.1 µM, first compound 0.00316 µM): 118% | viability, T/C (second compound 0.1 µM, first compound 0.01 µM): 101% | viability, T/C [13]: 72.4% | viability, T/C [14]: 43% | viability, T/C [15]: 18.3% | viability, T/C [16]: 10.7% | viability, T/C (second compound 0.316 µM, first compound 0.00316 µM): 45.6% | viability, T/C (second compound 0.316 µM, first compound 0.01 µM): 43.8% | viability, T/C [19]: 37.4% | viability, T/C [20]: 22.5% | viability, T/C [21]: 11% | viability, T/C [22]: 5.26% | viability, T/C (second compound 1 µM, first compound 0.00316 µM): 1.95% | viability, T/C (second compound 1 µM, first compound 0.01 µM): 0.55% | viability, T/C [25]: 0.91% | viability, T/C [26]: 0.76% | viability, T/C [27]: 0.14% | viability, T/C [28]: 0.11% | viability, T/C (second compound 3.16 µM, first compound 0.00316 µM): 0.14% | viability, T/C (second compound 3.16 µM, first compound 0.01 µM): 0.49% | viability, T/C [31]: 0.15% | viability, T/C [32]: 0.11% | viability, T/C [33]: 0.11% | viability, T/C [34]: 0.58% | viability, T/C (second compound 10 µM, first compound 0.00316 µM): 0.07% | viability, T/C (second compound 10 µM, first compound 0.01 µM): 0.14% | viability, T/C [37]: 0.42% | viability, T/C [38]: 0.17% | viability, T/C [39]: 1.19% | viability, T/C [40]: 1.16%

C=CC(=O)Nc1cc(Nc2nccc(-c3cn(C)c4ccccc34)n2)c(OC)cc1N(C)CCN(C)C
viability, T/C (compound 0.000949 µM): 99.8% and 108% | viability, T/C (compound 0.003 µM): 92.8% and 88.8% | viability, T/C (compound 0.00949 µM): 103% and 107% | viability, T/C (compound 0.03 µM): 110% and 92.8% | viability, T/C (compound 0.0949 µM): 104% and 111% | viability, T/C (compound 0.3 µM): 83.7% and 87.5% | IC50 (curve of compound): > 0.3 µM

From PubChem BioAssay AID2060602 (Molecular Pharmacology Branch, DTP, NCI, 2025)
